“Also recorded” adds a separate entry of the source.
Columns and labels:
[1] = tested on: transformed human embryonic kidney 293 cells; assay: Growth inhibition (MTT), 293 cells; format: cell-based; details: HEK293, 144 h, 6 days
Method: (§1) Exponentially growing cells (1-2×10^3 cells, unless specified otherwise) in 0.1 ml medium were seeded on day 0 in a 96-well microtiter plate. On day 1, 0.1 ml aliquots of medium containing graded concentrations of test analogs were added in duplicate to the cell plates. After incubation at 37° C. in a humidified incubator for 6 days, the plates were centrifuged briefly and 100 μl of the growth medium was removed. Cell cultures were incubated with 50 μl of 3-(4,5-dimethylthiazol-2-yl)-2,5-diphenyl-tetrazolium bromide, (MTT) at a concentration of 1 mg/ml in Dulbecco's phosphate buffered saline (PBS)) for 4 hr at 37° C. The resulting purple formazan precipitate was solubilized with 200 μl of 0.04 N HCl in isopropyl alcohol. Absorbance was monitored in a BioRad Model 3550 Microplate Reader at a test wavelength of 570 nm and a reference wavelength of 630 nm. The absorbance was transferred to a PC 486 computer. The IC50 values were determined by a computer program (EZ-ED50) that fits all the data to the following four-parameter logistic equation: [formula]
(§2) where Amax is the absorbance of control cells, Amin is the absorbance of cells in the presence of highest agent concentration, Y is the observed absorbance, X is the agent concentration, IC50 is the concentration of agent that inhibits the cell growth by 50% of control cells (based on the absorbance) and n is the slope of the curve.
(§3) This is due to the extracellular dephosphorylation of the mono-, di-, or triphosphates by […] or 5′-nucleotidase back to the nucleoside. With this in mind, the inventors used only nucleosides rather than nucleoside triphosphates in these studies. Cultured tumor cells were incubated with selected nucleosides at graded concentrations for 6 days and the growth inhibition was determined by the standard MTT assay.

[2] = tested on: human colon carcinoma HT29 cells; assay: Growth inhibition (MTT), HT29 cells; format: cell-based; details: HT-29, 144 h, 6 days
Method: as §1, §2, §3

[3] = biological target: T1, human 293 cell telomerase (Homo sapiens, UniProt O14746); assay: Conventional telomerase assay (32P-dGTP as radiolabel substrate); format: biochemical; details: for Inhibition of 293 Telomerase, Conventional Assay *dGTP: up to 2 mM
T1 construct: with 20 μl of S100 enzyme extract; endogenous in cells; host or cells: 293 cells (transformed human embryonic kidney), S100 extract
Method: Telomerase was prepared from transformed human embryonic kidney 293 cell line. Human embryonic kidney 293 cells were grown in Joklik's modified MEM niedium (Sigma, St Louis, Mo.) supplemented with 5% fetal bovine serum at 37° C. in a humidified atmosphere with 5% CO2. The cells were subcultured at 1-2×10^5 cells/ml twice a week. When the cells grew to approximately 1×10^6 cells/ml, the cells (˜2×10^9 cells) were centrifuged and transferred into polypropylene centrifuge (50 ml) tubes and kept on ice. The cells were then centrifuged in a (Beckman GS-6R) centrifuge at 1200 RPM for 10 minutes at 4° C., and resuspended in PBS. The washed cells were resuspended in 15 ml Hypobuffer Mix (10 mM HEPES, pH 8.0, 3 mM KCl, 1 mM MgCl2, 1 mM dithiothreitol, 1 μM leupeptin, 0.1 mM PMSF, 10 μM pepstatin, 0.83 μg/ml chymostatin, 0.83 μg/ml antipain, and 43.2 units/ml RNase Guard) and centrifuged. The cell pellets were resuspended in 0.75×volumes Hypobuffer [Hypobuffer Mix+40 units/ml RNase Guard (Pharmacia, N.J.) to allow the cells to swell. The cell suspensions were homogenized to allow the telomerase to “leak” into the cytosolic fraction. The lysate was then poured into new, autoclaved, 3 ml polyallomer ultracentrifuge tubes and centrifuged at 100,000×g for 1 hour at 4° C. A top lipid layer was carefully removed and discarded, and the supernatant was collected. 1/50 of the volume of 5 M NaCl was added to the clear supernatant fluid to achieve a final concentration of 0.1 M. Sterile glycerol was added until the final glycerol concentration was 20%. The enzyme solution was aliquoted into Eppendorf tubes and quickly frozen in liquid nitrogen and stored at −70° C.
The assay is based on the ability of the telomerase enzyme in the S100 fractions to recognize an 18-base DNA primer with the DNA sequence (TTAGGG)3. DNA polymerization initiates from the 3′-OH group of the oligonucleotide. By reading from its complementary internal RNA template, telomerase adds a repeated set of 5′-TTAGGG-3′ to the original 18-base primer. Non-synchronous “starts” and “terminations” among the different enzyme complexes result in a degenerative set of different length DNA primers occurring in 6-base increments. Incorporation of [α-^32P]dGTP at the guanine positions of the 5′-TTAGGG-3′ sequence allows the newly synthesized DNA fragments to be visualized by autoradiography. The resulting image forms the characteristic “ladder” structure that is used to identify telomerase activity. The images are scanned using a phosphoimager or laser densitometer (Molecular Dynamics, Sunnyvale, Calif.). Comparisons of the total volumes under the corresponding peaks are used to quantitate the total amount of [α-^32P] incorporated in the primer extension reaction.
The telomerase assay was initiated by mixing 20 μl of 2×reaction mix (100 mM Tris-OAc, pH 8.5, 100 mM KOAc, 10 mM β-mercaptoethanol, 2 mM spermidine, 2 mM MgCl2, 2 mM dATP, 2 mM dTTP, 2 μM oligo primer, potential inhibitors of interest at the appropriate concentration, and 50 μCi [α^32-P]dGTP) with 20 μl of S100 enzyme extract. The reaction mixture was then incubated at 30° C. for 1 hour. The reaction was stopped by incubating sequentially with 50 μl of the stop solution (10 mM Tris pH 7.5, 20 mM EDTA, 0.1 mg/ml RNase A) and 50 μl of deproteinase solution (10 mM Tris pH 7.5, 0.5% SDS, 0.3 mg/ml Proteinase K). The mixture was extracted with 50% phenol/50% chloroform (v/v). The DNA was then precipitated by adding 2.5×volumes of cold EtOH and letting it stand overnight at −70° C. The DNAs were separated on an 8% polyacrylamide/7M urea denaturing gel at 1600 V for 1.5 hours. The gel was dried and exposed to Kodak XAR-5 film to gel in −70° C. Typical autoradiographic exposures required 3-14 days.

human telomerase = biological target: T2, human telomerase (Homo sapiens, UniProt O14746); assay: Cell-free telomerase inhibition, conventional or modified assay not stated; format: biochemical
T2 construct: telomerase in S100 extracts of transformed human fetal kidney tumor 293 cells (a processive telomerase); endogenous in cells; host or cells: human cells, (S100 extract)
Method: Selected nucleoside triphosphates were tested in one or both of the “conventional” or “modified” telomerase assays described in Methods using the human processive and the CHO non-processive telomerases. Initially, three chain-terminators were selected: 2′,3′-dideoxythymidine triphosphate (ddTTP), 3′-fluoro-2′,3′-dideoxythymidine triphosphate (F-ddTTP), and 3′-azido-2′-, 3′-dideoxythymidine triphosphate (AZ-ddTTP) as prototype agents to investigate whether they could inhibit telomerase activity. The three compounds are dTTP analogs without a 3′-OH group for subsequent chain elongation. They may either incorporate into the telomere sequence and terminate further chain elongation or compete directly with dTTP for the substrate binding site in the telomerase reaction. In either case, telomerase activity is inhibited.

T1 sequence (O14746 whole entry): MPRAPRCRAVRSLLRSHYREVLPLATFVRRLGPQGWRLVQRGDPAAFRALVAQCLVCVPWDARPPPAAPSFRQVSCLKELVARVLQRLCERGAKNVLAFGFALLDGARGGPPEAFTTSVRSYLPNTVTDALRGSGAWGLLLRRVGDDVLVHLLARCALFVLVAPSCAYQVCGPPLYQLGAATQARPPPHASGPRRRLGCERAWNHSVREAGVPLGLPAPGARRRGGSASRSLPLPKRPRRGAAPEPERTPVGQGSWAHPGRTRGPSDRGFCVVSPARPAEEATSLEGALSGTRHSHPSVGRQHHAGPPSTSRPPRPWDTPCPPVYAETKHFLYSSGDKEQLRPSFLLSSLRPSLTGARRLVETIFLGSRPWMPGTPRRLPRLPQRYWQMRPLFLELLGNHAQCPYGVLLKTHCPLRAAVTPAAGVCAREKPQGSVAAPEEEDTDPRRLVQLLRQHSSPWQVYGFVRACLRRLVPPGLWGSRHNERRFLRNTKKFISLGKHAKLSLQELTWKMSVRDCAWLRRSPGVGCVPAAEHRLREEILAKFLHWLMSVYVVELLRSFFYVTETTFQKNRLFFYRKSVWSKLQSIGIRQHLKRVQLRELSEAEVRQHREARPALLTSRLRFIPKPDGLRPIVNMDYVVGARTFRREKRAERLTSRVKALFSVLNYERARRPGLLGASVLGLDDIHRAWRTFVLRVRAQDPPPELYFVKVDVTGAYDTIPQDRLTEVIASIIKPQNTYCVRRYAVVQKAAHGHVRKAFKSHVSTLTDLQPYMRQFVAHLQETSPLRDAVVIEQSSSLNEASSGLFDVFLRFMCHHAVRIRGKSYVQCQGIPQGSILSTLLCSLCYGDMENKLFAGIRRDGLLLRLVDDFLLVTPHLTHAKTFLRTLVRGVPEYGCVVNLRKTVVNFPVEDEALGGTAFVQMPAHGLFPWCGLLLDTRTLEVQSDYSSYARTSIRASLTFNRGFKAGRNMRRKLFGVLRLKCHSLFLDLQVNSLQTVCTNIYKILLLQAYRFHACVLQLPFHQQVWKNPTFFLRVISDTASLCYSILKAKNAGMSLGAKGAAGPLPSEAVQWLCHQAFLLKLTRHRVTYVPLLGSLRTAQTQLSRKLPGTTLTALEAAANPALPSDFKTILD
T1 sequence (O60832 whole entry partner): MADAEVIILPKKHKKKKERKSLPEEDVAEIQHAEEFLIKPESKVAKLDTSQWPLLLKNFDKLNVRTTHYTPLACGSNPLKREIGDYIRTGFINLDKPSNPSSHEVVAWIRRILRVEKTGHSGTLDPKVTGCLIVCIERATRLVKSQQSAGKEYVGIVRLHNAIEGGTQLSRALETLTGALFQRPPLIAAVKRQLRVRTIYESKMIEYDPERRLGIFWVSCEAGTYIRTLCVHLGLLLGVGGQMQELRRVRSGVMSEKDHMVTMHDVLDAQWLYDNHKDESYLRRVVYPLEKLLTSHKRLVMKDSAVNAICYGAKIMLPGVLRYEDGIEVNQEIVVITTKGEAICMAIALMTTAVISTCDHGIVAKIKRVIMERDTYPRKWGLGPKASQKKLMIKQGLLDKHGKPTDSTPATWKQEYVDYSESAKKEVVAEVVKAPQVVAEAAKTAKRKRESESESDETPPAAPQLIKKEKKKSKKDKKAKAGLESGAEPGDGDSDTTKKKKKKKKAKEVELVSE
T1 sequence (Q9NPE3 whole entry partner): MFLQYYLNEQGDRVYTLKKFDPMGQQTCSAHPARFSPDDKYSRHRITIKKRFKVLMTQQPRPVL
T1 sequence (Q9NX24 whole entry partner): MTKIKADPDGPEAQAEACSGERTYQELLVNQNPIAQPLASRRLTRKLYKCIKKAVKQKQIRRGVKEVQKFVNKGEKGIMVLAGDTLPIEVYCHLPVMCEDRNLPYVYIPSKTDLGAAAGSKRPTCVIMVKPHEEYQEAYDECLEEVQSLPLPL
T1 sequence (Q9NY12 whole entry partner): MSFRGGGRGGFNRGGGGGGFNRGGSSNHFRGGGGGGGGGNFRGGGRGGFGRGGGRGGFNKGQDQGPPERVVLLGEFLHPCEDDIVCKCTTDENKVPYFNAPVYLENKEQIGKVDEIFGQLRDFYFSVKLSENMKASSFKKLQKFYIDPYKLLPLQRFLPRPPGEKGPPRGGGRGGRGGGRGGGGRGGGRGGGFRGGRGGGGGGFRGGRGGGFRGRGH
T2 sequence (O14746 whole entry): as the sequence (O14746 whole entry) above
T2 sequence (O60832 whole entry partner): as the sequence (O60832 whole entry partner) above
T2 sequence (Q9NPE3 whole entry partner): as the sequence (Q9NPE3 whole entry partner) above
T2 sequence (Q9NX24 whole entry partner): as the sequence (Q9NX24 whole entry partner) above
T2 sequence (Q9NY12 whole entry partner): as the sequence (Q9NY12 whole entry partner) above

Compound	IC50 [2] [µM]	IC50 [1] [µM]	also measured
5-Allylamino-2′-Deoxyuridine-5′-Triphosphate [NA021]			% of Control ([3]; 0.125 mM): 51%; % of Control ([3]; 0.25 mM): 70%; % of Control ([3]; 0.5 mM): 43%; % of Control ([3]; 1.0 mM): 33%; % of Control ([3]; 2.0 mM): 30%; % of Control ([3]; 10 mM (so in the source)): 100%; IC50 ([3]; 293 cell telomerase): ~500 µM; Inhibition of 293 Telomerase, Conventional Assay *dGTP [3]: concentration dependent inhibition; also recorded: the telomerase activity is weak)
Nc1nc2c(ncn2[C@@H]2O[C@H](COP(=O)(O)OP(=O)(O)CP(=O)(O)O)[C@@H](O)[C@H]2O)c(=O)[nH]1 [NA011, Guanosine-5′-β,γ-Methylene Triphosphate]			% of Control ([3]; 0.125 mM): 82%; % of Control ([3]; 0.25 mM): 63%; % of Control ([3]; 0.5 mM): 86%; % of Control ([3]; 1.0 mM): 70%; % of Control ([3]; 2.0 mM): 65%; Inhibition of 293 Telomerase, Conventional Assay *dGTP [3]: inactive; also recorded: No Inhibition (up to 2 mM)
Nc1ncnc2c1c(I)cn2[C@H]1C[C@H](O)[C@@H](CO)O1 [FS004, 7-Iodo-7-Deaza-2′-Deoxyadenosine]	1.88	0.319	
Cc1cn([C@H]2CC[C@@H](COP(=O)(O)OP(=O)(O)OP(=O)(O)O)O2)c(=O)[nH]c1=O [NA001, 2′,3′-Dideoxythymidine-5′-Triphosphate]			IC50 ([3]; 293 cells telomerase, competing dTTP 1-2 mM, inhibitor 0 to 2 mM): ~500 µM
Nc1nc2c(ncn2[C@H]2C[C@H](O)[C@@H](COP(O)(O)=S)O2)c(=O)[nH]1 [NA015, 2′-Deoxyguanosine-5′-Phosphorothioate]			Inhibition of 293 Telomerase, Conventional Assay *dGTP [3]: No Inhibition (up to 2 mM)
Nc1ncnc2c1c(Br)cn2[C@H]1C[C@H](O)[C@@H](CO)O1 [FS018, 7-Bromo-7-Deaza-2′-Deoxyadenosine]	0.963	1.14	
Cc1cn([C@H]2C[C@H](O)[C@@H](COP(=O)(O)OP(=O)(O)OP(=O)(O)O)O2)c(=O)[nH]c1=S [4-thiothymidine triphosphate]			inhibition of human telomerase activity (human telomerase; 1 mM): completely
Nc1ncnc2c1c(Cl)cn2[C@H]1C[C@H](O)[C@@H](CO)O1 [FS017, 7-Chloro-7-Deaza-2′-Deoxyadenosine]	15.6	3.32	
N#Cc1cn([C@H]2C[C@H](O)[C@@H](CO)O2)c2ncnc(N)c12 [FS005, 7-Cyano-7-Deaza-2′-Deoxyadenosine]	51.2	18.2	
Nc1nc2c(ncn2[C@H]2C[C@H](O)[C@@H](COP(=O)(O)OP(=O)(O)CP(=O)(O)O)O2)c(=O)[nH]1 [NA014, 2′-Deoxyguanosine-5′-β,γ-Methylene Triphosphate]			IC50 (human telomerase; Summary values, assay variant not stated, read-out: IC50): 102 µM; remaining activity at 125 µM ([3]; 0.125 mM, read-out: % of Control): 60%; remaining activity at 250 µM ([3]; 0.25 mM, read-out: % of Control): 38%; remaining activity at 500 µM ([3]; 0.5 mM, read-out: % of Control): 42%; remaining activity at 1000 µM ([3]; 1.0 mM, read-out: % of Control): 40%; remaining activity at 2000 µM ([3]; 2.0 mM, read-out: % of Control): 28%; IC50 ([3]; 293 cell telomerase): < 125 µM
Nc1ncnc2c1c(I)nn2[C@H]1C[C@H](O)[C@@H](CO)O1 [FS015, 7-Iodo-7-Deaza-8-Aza-2′-Deoxyadenosine]	8.09	1.88	

More lines, main results first:

IC50 [2] [µM]	Compound	IC50 [1] [µM]	also measured
196	Cc1cn([C@H]2C[C@H](O)[C@@H](CO)O2)c2nc(N)[nH]c(=O)c12 [FS022, 7-Methyl-7-Deaza-2′-Deoxyguanosine]	489	
99.6	Cc1cn([C@H]2C[C@H](O)[C@@H](CO)O2)c2ncnc(N)c12 [FS024, 7-Methyl-7-Deaza-2′-Deoxyadenosine]	109	
146	Nc1ncnc2c1ccn2[C@H]1C[C@H](O)[C@@H](CO)O1 [NA024, 7-Deaza-2′-Deoxyadenosine]	533	
78.8	Nc1nc2c(c(I)cn2[C@H]2C[C@H](O)[C@@H](CO)O2)c(=O)[nH]1 [FS021, 7-Iodo-7-Deaza-2′-Deoxyguanosine]	63.4	
109	Nc1nc2c(c(Cl)cn2[C@H]2C[C@H](O)[C@@H](CO)O2)c(=O)[nH]1 [FS019, 7-Chloro-7-Deaza-2′-Deoxyguanosine]	237	
170	Nc1nc2c(c(Br)cn2[C@H]2C[C@H](O)[C@@H](CO)O2)c(=O)[nH]1 [FS020, 7-Bromo-7-Deaza-2′-Deoxyguanosine]	180	
310	Cn1c(N)nc2c(ccn2[C@H]2C[C@H](O)[C@@H](CO)O2)c1=S [NA027, 1-Methyl-6-Thio-7-Deaza-2′-Deoxyguanosine]	161	
102	Nc1nc2c(ccn2[C@H]2C[C@H](O)[C@@H](CO)O2)c(=O)[nH]1 [NA025, 7-Deaza-2′-Deoxyguanosine]	130	

From patent US6593306B1, “Methods for modulation and inhibition of telomerase” (Board of Regents, The University of Texas Systems, priority 1995, dated 2003)
